Article PMC9516332 (Frontiers in Oncology, 2022)
pIC50: −log10 of the molar value. Where two headings read alike, the source gives them in different places.

Tested on: 134 cancer cell lines
Test: Cell viability assay (ATPlite, 72 hours), IC50 on cancer cell line panel

CCc1nc(C(N)=O)c(Nc2ccc(N3CCC(N4CCN(C)CC4)CC3)c(OC)c2)nc1NC1CCOCC1 [gilteritinib]
pIC50 (Homo sapiens, MKN-45, read-out: IC50 in cell proliferation assay, MKN45 cell line (MET amplification)): 5.83 | pIC50 (Homo sapiens, MOLM-13, read-out: IC50 in cell proliferation assay, MOLM-13 cell line (FLT3 ITD)): 8.40 | pIC50 (Homo sapiens, MOLT-4, read-out: IC50 in cell proliferation assay, MOLT-4 cell line): 6.00 | pIC50 (Homo sapiens, MV4-11, read-out: IC50 in cell proliferation assay, MV4-11 cell line (FLT3 ITD)): 9.08 | pIC50 (Homo sapiens, MeWo, read-out: IC50 in cell proliferation assay, MeWo cell line): 6.47 | pIC50 (Homo sapiens, NCCIT, read-out: IC50 in cell proliferation assay, NCC-IT cell line): 6.51 | pIC50 (Homo sapiens, NCI-H82, read-out: IC50 in cell proliferation assay, cell line NCI-H82): 6.52 | pIC50 (Homo sapiens, NCI-H460, read-out: IC50 in cell proliferation assay, NCI-H460 cell line): 6.30 | pIC50 (Homo sapiens, NCI-H661, read-out: IC50 in cell proliferation assay, NCI-H661 cell line): 6.63 | pIC50 (Homo sapiens, NCI-H716, read-out: IC50 in cell proliferation assay, cell line NCI-H716 (FGFR2-COL14A1)): 6.23 | pIC50 (Homo sapiens, NCI-H1650, read-out: IC50 in cell proliferation assay, NCI-H1650 cell line (EGFR exon19del)): 6.33 | pIC50 (Homo sapiens, NCI-H1975, read-out: IC50 in cell proliferation assay, NCI-H1975 cell line (EGFR p.L858R + p.T790M)): 6.31 | pIC50 (Homo sapiens, NCI-H2228, read-out: IC50 in cell proliferation assay, NCI-H2228 cell line (EML4-ALK)): 8.74 | pIC50 (Homo sapiens, OVCAR-3, read-out: IC50 in cell proliferation assay, cell line OVCAR-3): 6.23 | pIC50 (Homo sapiens, PFSK-1, read-out: IC50 in cell proliferation assay, cell line PFSK-1): 6.50 | pIC50 (Homo sapiens, RL95-2, read-out: IC50 in cell proliferation assay, cell line RL95-2 (EGFR p.A289V)): 6.75 | pIC50 (Homo sapiens, RPMI-7951, read-out: IC50 in cell proliferation assay, cell line RPMI-7951 (BRAF p.V600E)): 6.19 | pIC50 (Homo sapiens, RS4-11, read-out: IC50 in cell proliferation assay, cell line RS4;11): 6.41 | pIC50 (Homo sapiens, Rec1, read-out: IC50 in cell proliferation assay, cell line REC-1): 5.86 | pIC50 (Homo sapiens, SHP77, read-out: IC50 in cell proliferation assay, cell line SHP-77): 5.61 | pIC50 (Homo sapiens, SK-BR-3, read-out: IC50 in cell proliferation assay, cell line SK-BR-3 (ERBB2 amplification)): 4.90 | pIC50 (Homo sapiens, SK-N-AS, read-out: IC50 in cell proliferation assay, cell line SK-N-AS): 6.36 | pIC50 (Homo sapiens, SK-N-FI, read-out: IC50 in cell proliferation assay, cell line SK-N-FI): 6.62 | pIC50 (Homo sapiens, SK-N-MC, read-out: IC50 in cell proliferation assay, cell line SK-N-MC): 6.62 | pIC50 (Homo sapiens, SK-N-SH, read-out: IC50 in cell proliferation assay, cell line SK-N-SH (ALK p.F1174L)): 6.38 | pIC50 (Homo sapiens, SNU-5, read-out: IC50 in cell proliferation assay, cell line SNU-5 (MET amplification)): 6.33 | pIC50 (Homo sapiens, SNU-16, read-out: IC50 in cell proliferation assay, cell line SNU-16 (FGFR2 amplification)): 5.96 | pIC50 (Homo sapiens, SNU-C2B, read-out: IC50 in cell proliferation assay, cell line SNU-C2B (EGFR p.R165Q)): 6.45 | pIC50 (Homo sapiens, SU-DHL-1, read-out: IC50 in cell proliferation assay, cell line SU-DHL-1 (NPM1-ALK)): 7.72 | pIC50 (Homo sapiens, SU-DHL-6, read-out: IC50 in cell proliferation assay, cell line SU-DHL-6): 6.00 | pIC50 (Homo sapiens, SUP-T1, read-out: IC50 in cell proliferation assay, cell line SUP-T1): 6.02 | pIC50 (Homo sapiens, SW48, read-out: IC50 in cell proliferation assay, cell line SW48 (EGFR p.G719S)): 6.54 | pIC50 (Homo sapiens, SW480, read-out: IC50 in cell proliferation assay, cell line SW480): 5.87 | pIC50 (Homo sapiens, SW626, read-out: IC50 in cell proliferation assay, cell line SW626): 6.26 | pIC50 (Homo sapiens, SW780, read-out: IC50 in cell proliferation assay, cell line SW780 (FGFR3-BAIAP2L1)): 6.32 | pIC50 (Homo sapiens, SW837, read-out: IC50 in cell proliferation assay, cell line SW837): 5.71 | pIC50 (Homo sapiens, SW872, read-out: IC50 in cell proliferation assay, cell line SW872 (BRAF p.V600E)): 6.52 | pIC50 (Homo sapiens, SW900, read-out: IC50 in cell proliferation assay, cell line SW900): 6.50 | pIC50 (Homo sapiens, SW948, read-out: IC50 in cell proliferation assay, cell line SW948): 6.10 | pIC50 (Homo sapiens, SW982, read-out: IC50 in cell proliferation assay, cell line SW982 (BRAF p.V600E)): 6.49 | pIC50 (Homo sapiens, SW-620, read-out: IC50 in cell proliferation assay, cell line SW620): 6.28 | pIC50 (Homo sapiens, T98G, read-out: IC50 in cell proliferation assay, cell line T98G): 6.09 | pIC50 (Homo sapiens, TCC-SUP, read-out: IC50 in cell proliferation assay, cell line TCCSUP): 6.49 | pIC50 (Homo sapiens, THP-1, read-out: IC50 in cell proliferation assay, cell line THP-1): 5.95 | pIC50 (Homo sapiens, U2OS, read-out: IC50 in cell proliferation assay, cell line U2OS): 6.65 | pIC50 (Homo sapiens, U-87 MG, read-out: IC50 in cell proliferation assay, cell line U-87MG ATCC): 5.65 | pIC50 (Homo sapiens, U-118-MG, read-out: IC50 in cell proliferation assay, cell line U-118MG): 5.87 | pIC50 (Homo sapiens, UMUC3, read-out: IC50 in cell proliferation assay, cell line UM-UC-3): 6.34 | pIC50 (Hs766T, read-out: IC50 in cell proliferation assay, Hs 766T cell line): 6.46 | pIC50 (L-82, read-out: IC50 in cell proliferation assay, L-82 cell line (NPM1-ALK)): 8.70 | pIC50 (Rh30, read-out: IC50 in cell proliferation assay, cell line Rh30): 6.45 | pIC50 (read-out: IC50 in cell proliferation assay, 11-18 cell line (EGFR p.L858R)): 6.24 | pIC50 (read-out: IC50 in cell proliferation assay, Hs 852.T cell line): 6.71 | pIC50 (read-out: IC50 in cell proliferation assay, JAR cell line): 6.32 | pIC50 (read-out: IC50 in cell proliferation assay, cell line 5637): 6.26 | pIC50 (read-out: IC50 in cell proliferation assay, cell line A-388): 5.89 | pIC50 (read-out: IC50 in cell proliferation assay, cell line DB): 6.05 | pIC50 (read-out: IC50 in cell proliferation assay, cell line DEL (NPM1-ALK)): 8.59 | pIC50 (read-out: IC50 in cell proliferation assay, cell line ES-2 (BRAF p.V600E)): 6.15 | pIC50 (read-out: IC50 in cell proliferation assay, cell line PA-1): 6.31 | pIC50 (read-out: IC50 in cell proliferation assay, cell line PC-3): 6.05 | pIC50 (read-out: IC50 in cell proliferation assay, cell line RD): 6.54 | pIC50 (read-out: IC50 in cell proliferation assay, cell line RKO (BRAF p.V600E)): 5.87 | pIC50 (read-out: IC50 in cell proliferation assay, cell line RL): 5.58 | pIC50 (read-out: IC50 in cell proliferation assay, cell line RT-4 (FGFR3-TACC3)): 5.86 | pIC50 (read-out: IC50 in cell proliferation assay, cell line SR (NPM1-ALK)): 7.66 | pIC50 (read-out: IC50 in cell proliferation assay, cell line T24): 6.48 | pIC50 (read-out: IC50 in cell proliferation assay, cell line TT (RET p.C634W)): 6.75 | pIC50 (read-out: IC50 in cell proliferation assay, cell line VA-ES-BJ): 6.37
